# According to patent US20250084080A1, “CRYSTALLINE AND SALT FORMS OF AN NLRP3 INHIBITOR” (BioAge Labs, Inc., priority 2023, published 2025):
# Tests used:
# Type in all cases: physicochemical
# [1] = Bulk stability (solid state, 1 week; HPLC, XRPD, IC, color); conditions: sodium salt
# [2] = Hygroscopicity by dynamic vapor sorption (DVS) at 25° C.; conditions: for Desorp. (%) / Sorp. (%): DVS 25° C.
# How it was run: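 About 5–10 mg sample was cycled 40-0-95-0-40% RH in 10% steps at 25 °C with water vapour. Equilibrium criterion was 0.002 %/min dm/dt, with a minimum 60 min stability duration and a maximum 360 min per stage.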
# [3] = Bulk stability (solid state, 1 week; HPLC, XRPD, IC, color); design: key to CL (color): A: no change of color; B: slight discoloration; C: medium discoloration; D: strong discoloration
# Protocol: Bulk stability of free form Pattern B was evaluated at 25° C./92.5% RH in an open container, at 40° C./75% RH in an open container and at 60° C. in a tight container over 1 week.
# [4] = Solubility at 37° C. in buffers and biorelevant media, XRPD of residual solid; conditions: for solubility at 2 h / solubility at 24 h: thermodynamic from solid
# How it was run: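 Solids equivalent to 10 mg anhydrous free form were stirred in 5 mL of each medium (pH 1.2 HCl, pH 4.5 acetate, pH 6.8 phosphate, water, FaSSGF, FaSSIF-v1, FeSSIF-v1, HPMC/Pluronic in acetate) at 37 °C, 400 rpm. Sampled at 2 h and 24 h; supernatant analyzed by HPLC plus pH, 24 h residual solid by XRPD.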
# [5] = Competitive equilibration and water activity experiments; conditions: water activity 0 to 0.4 at 5° C. and 0 to 0.6 at 25° C., equilibration 5 days
# Protocol: Relative stability of the hydrate Pattern A and the anhydrate Pattern B was investigated by competitive equilibration and water activity experiments at 5° C. and 25° C.
# [6] = 25° C./92.5% RH open, 40° C./75% RH open, 60° C. tight container
# [7] = Solid state, 25° C./92.5% RH, open
# [8] = Solid state, 40° C./75% RH, open
# [9] = 2% HPMC + 1% Pluronic F68 in pH 4.5 acetate buffer (50 mM), 37° C.
# [10] = aqueous buffer, pH 4.5 acetate buffer (50 mM), 37° C.
# [11] = aqueous buffer, pH 6.8 phosphate buffer (50 mM), 37° C.
# [12] = aqueous with cosolvent or surfactant or cyclodextrin, 2% HPMC + 1% Pluronic F68 in pH 4.5 acetate buffer (50 mM), 37° C.
# [13] = fassgf or other biorelevant, FaSSGF, pH 1.6, 37° C.
# [14] = pH 4.5 acetate buffer (50 mM), 37° C.
# [15] = pH 6.8 phosphate buffer (50 mM), 37° C.
# [16] = simulated gastric fluid, pH 1.2 HCl buffer, 37° C.
smiles,measurement,setting,value
"CCOc1cc(C(=O)N(C)Cc2cnc(CO)c3cn[nH]c23)ccc1-c1cc(F)cc(F)c1.[Na] [Sodium salt Pattern A, 2-ethoxy-3′,5′-difluoro-N-((4-(hydroxymethyl)-1H-pyrazolo[4,3-c]pyridin-7-yl)methyl)-N-methyl-[1,1′-biphenyl]-4-carboxamide sodium salt]",Bulk (XRPD),"[1]; 25° C./92.5% RH, open",dissociated to free form Pattern A
same,Bulk (XRPD),"[1]; 60° C., closed",No form change
same,Desorp. (%),"[2]; 0% RH, 1st desorption",0.05%
same,Sorp. (%),"[2]; 0% RH, 1st sorption",0.05%
same,Desorp. (%),"[2]; 0% RH, 2nd desorption",0.00%
same,Sorp. (%),"[2]; 0% RH, 2nd sorption",0.00%
same,Desorp. (%),"[2]; 10% RH, 1st desorption",0.20%
same,Sorp. (%),"[2]; 10% RH, 1st sorption",0.17%
same,Desorp. (%),"[2]; 10% RH, 2nd desorption",0.18%
same,Sorp. (%),"[2]; 10% RH, 2nd sorption",0.14%
same,Desorp. (%),"[2]; 20% RH, 1st desorption",0.28%
same,Sorp. (%),"[2]; 20% RH, 1st sorption",0.23%
same,Desorp. (%),"[2]; 20% RH, 2nd desorption",0.25%
same,Sorp. (%),"[2]; 20% RH, 2nd sorption",0.21%
same,Desorp. (%),"[2]; 30% RH, 1st desorption",0.35%
same,Sorp. (%),"[2]; 30% RH, 1st sorption",0.30%
same,Desorp. (%),"[2]; 30% RH, 2nd desorption",0.33%
same,Sorp. (%),"[2]; 30% RH, 2nd sorption",0.28%
same,Desorp. (%),"[2]; 40% RH, 1st desorption",0.45%
same,Sorp. (%),"[2]; 40% RH, 1st sorption",0.38%
same,Desorp. (%),"[2]; 40% RH, 2nd desorption",0.94%
same,Sorp. (%),"[2]; 40% RH, 2nd sorption",0.38%
same,Sorp. (%),"[2]; 50% RH, 1st sorption",0.49%
same,Desorp. (%),"[2]; 50% RH, 2nd desorption",1.69%
same,Sorp. (%),"[2]; 60% RH, 1st sorption",0.94%
same,Desorp. (%),"[2]; 60% RH, 2nd desorption",2.23%
same,Sorp. (%),"[2]; 70% RH, 1st sorption",1.87%
same,Desorp. (%),"[2]; 70% RH, 2nd desorption",2.55%
same,Sorp. (%),"[2]; 80% RH, 1st sorption",2.71%
same,Desorp. (%),"[2]; 80% RH, 2nd desorption",3.05%
same,Sorp. (%),"[2]; 90% RH, 1st sorption",4.13%
same,Desorp. (%),"[2]; 90% RH, 2nd desorption",4.35%
same,Sorp. (%),"[2]; 95% RH, 1st sorption",6.60%
same,Desorp. (%),"[2]; 95% RH, 2nd desorption",6.60%
same,XRPD after DVS test,"[2]; DVS at 25° C., sodium salt",No form change
same,"Bulk stability, chemical and physical",[3]; [6],chemically stable but physically unstable
same,Degradation by HPLC,[3]; [6],no obvious degradation
same,Bulk (HPLC) Purity,[3]; [7],98.7%
same,CL (color),[3]; [7],A
same,Bulk (HPLC) Purity,[3]; [8],98.7%
same,CL (color),[3]; [8],A
same,Bulk (XRPD),"[3]; Solid state, 40° C./75% RH, open, sodium salt",dissociated to free form Pattern A
same,Bulk (HPLC) Purity,"[3]; Solid state, 60° C., closed",98.7%
same,CL (color),"[3]; Solid state, 60° C., closed",A
same,pH of supernatant at 24 h,[4]; [9],(4.7)
same,Solubility compared with the free form Pattern A,[4]; 2% HPMC+1% Pluronic F68 in acetate buffer (pH 4.5),obviously improved solubility
same,pH of supernatant at 24 h,"[4]; FaSSGF, pH 1.6, 37° C.",(1.8)
same,pH of supernatant at 24 h,"[4]; FaSSIF-v1, pH 6.5, 37° C.",(6.7)
same,pH of supernatant at 24 h,"[4]; FeSSIF-v1, pH 5.0, 37° C.",(5.1)
same,pH of supernatant at 24 h,"[4]; Water, 37° C.",(11.1)
same,solubility at 2 h,[4]; [10],9.3 µg/mL
same,solubility at 24 h,[4]; [10],7.4 µg/mL
same,solubility at 2 h,[4]; [11],3.1 µg/mL
same,solubility at 24 h,[4]; [11],2.8 µg/mL
same,solubility at 2 h,[4]; [12],273 µg/mL
same,solubility at 24 h,[4]; [12],260 µg/mL
same,solubility at 2 h,[4]; [13],664 µg/mL
same,solubility at 24 h,[4]; [13],630 µg/mL
same,pH of supernatant at 24 h,"[4]; pH 1.2 HCl buffer, 37° C.",(1.3)
same,pH of supernatant at 24 h,[4]; [14],(4.6)
same,pH of supernatant at 24 h,[4]; [15],(7.0)
same,solubility at 2 h,[4]; [16],608 µg/mL
same,solubility at 24 h,[4]; [16],511 µg/mL
same,solubility at 2 h,"[4]; FaSSIF-v1, pH 6.5, 37° C.",10.2 µg/mL
same,solubility at 24 h,"[4]; FaSSIF-v1, pH 6.5, 37° C.",13.1 µg/mL
same,solubility at 2 h,"[4]; FeSSIF-v1, pH 5.0, 37° C.",144 µg/mL
same,solubility at 24 h,"[4]; FeSSIF-v1, pH 5.0, 37° C.",149 µg/mL
same,solubility at 2 h,"[4]; Water, 37° C.",7.7 µg/mL
same,solubility at 24 h,"[4]; Water, 37° C.",8.2 µg/mL
"CCOc1cc(C(=O)N(C)Cc2cnc(CO)c3cn[nH]c23)ccc1-c1cc(F)cc(F)c1 [Free form Pattern A, 2-ethoxy-3′,5′-difluoro-N-((4-(hydroxymethyl)-1H-pyrazolo[4,3-c]pyridin-7-yl)methyl)-N-methyl-[1,1′-biphenyl]-4-carboxamide]",Desorp. (%),"[2]; 0% RH, 1st desorption",0.01%
same,Sorp. (%),"[2]; 0% RH, 2nd sorption",0.01%
same,Desorp. (%),"[2]; 10% RH, 1st desorption",3.59%
same,Sorp. (%),"[2]; 10% RH, 2nd sorption",0.09%
same,Desorp. (%),"[2]; 20% RH, 1st desorption",3.74%
same,Sorp. (%),"[2]; 20% RH, 2nd sorption",3.45%
same,Desorp. (%),"[2]; 30% RH, 1st desorption",3.79%
same,Sorp. (%),"[2]; 30% RH, 2nd sorption",3.78%
same,Desorp. (%),"[2]; 40% RH, 1st desorption",3.83%
same,Sorp. (%),"[2]; 40% RH, 1st sorption",3.87%
same,Desorp. (%),"[2]; 40% RH, 2nd desorption",3.83%
same,Sorp. (%),"[2]; 40% RH, 2nd sorption",3.82%
same,Desorp. (%),"[2]; 50% RH, 1st desorption",3.93%
same,Sorp. (%),"[2]; 50% RH, 1st sorption",3.90%
same,Desorp. (%),"[2]; 50% RH, 2nd desorption",3.92%
same,Sorp. (%),"[2]; 50% RH, 2nd sorption",3.87%
same,Desorp. (%),"[2]; 60% RH, 1st desorption",4.00%
same,Sorp. (%),"[2]; 60% RH, 1st sorption",3.94%
same,Desorp. (%),"[2]; 60% RH, 2nd desorption",3.99%
same,Sorp. (%),"[2]; 60% RH, 2nd sorption",3.93%
same,Desorp. (%),"[2]; 70% RH, 1st desorption",4.07%
same,Sorp. (%),"[2]; 70% RH, 1st sorption",4.01%
same,Desorp. (%),"[2]; 70% RH, 2nd desorption",4.06%
same,Sorp. (%),"[2]; 70% RH, 2nd sorption",4.00%
same,Desorp. (%),"[2]; 80% RH, 1st desorption",4.17%
same,Sorp. (%),"[2]; 80% RH, 1st sorption",4.12%
same,Desorp. (%),"[2]; 80% RH, 2nd desorption",4.15%
same,Sorp. (%),"[2]; 80% RH, 2nd sorption",4.11%
same,Desorp. (%),"[2]; 90% RH, 1st desorption",4.35%
same,Sorp. (%),"[2]; 90% RH, 1st sorption",4.33%
same,Desorp. (%),"[2]; 90% RH, 2nd desorption",4.33%
same,Sorp. (%),"[2]; 90% RH, 2nd sorption",4.30%
same,Desorp. (%),"[2]; 95% RH, 1st desorption",4.61%
same,Sorp. (%),"[2]; 95% RH, 1st sorption",4.61%
same,Desorp. (%),"[2]; 95% RH, 2nd desorption",4.58%
same,Sorp. (%),"[2]; 95% RH, 2nd sorption",4.58%
same,Water absorbed from 40% RH to 80% RH,[2]; DVS at 25° C.,It absorbed 0.3%
same,XRPD after DVS test,[2]; DVS at 25° C.,No form change
same,Form conversion,[5],converted to anhydrate Pattern B
same,"Bulk stability, chemical and physical",[3]; [6],chemically and physically stable
same,Degradation by HPLC,[3]; [6],no obvious degradation
same,Form change by XRPD,[3]; [6],no form change
same,Bulk (HPLC) Purity,[3]; [7],97.9%
same,CL (color),[3]; [7],A
same,Bulk (HPLC) Purity,[3]; [8],97.7%
same,CL (color),[3]; [8],A
same,Bulk (HPLC) Purity,"[3]; Solid state, 60° C., closed",97.8%
same,CL (color),"[3]; Solid state, 60° C., closed",A
same,pH of supernatant at 24 h,[4]; [9],(4.6)
same,pH of supernatant at 24 h,"[4]; FaSSGF, pH 1.6, 37° C.",(1.6)
same,pH of supernatant at 24 h,"[4]; FaSSIF-v1, pH 6.5, 37° C.",(6.5)
same,pH of supernatant at 24 h,"[4]; FeSSIF-v1, pH 5.0, 37° C.",(5.0)
same,pH of supernatant at 24 h,"[4]; Water, 37° C.",(6.3)
same,solubility at 2 h,[4]; [10],14.4 µg/mL
same,solubility at 24 h,[4]; [10],13.7 µg/mL
same,solubility at 2 h,[4]; [11],4.7 µg/mL
same,solubility at 24 h,[4]; [11],4.3 µg/mL
same,solubility at 2 h,[4]; [12],24.4 µg/mL
same,solubility at 24 h,[4]; [12],34.3 µg/mL
same,solubility at 2 h,[4]; [13],746 µg/mL
same,solubility at 24 h,[4]; [13],616 µg/mL
same,pH of supernatant at 24 h,"[4]; pH 1.2 HCl buffer, 37° C.",(1.2)
same,pH of supernatant at 24 h,[4]; [14],(4.5)
same,pH of supernatant at 24 h,[4]; [15],(6.8)
same,solubility at 2 h,[4]; [16],425 µg/mL
same,solubility at 24 h,[4]; [16],402 µg/mL
same,solubility at 2 h,"[4]; FaSSIF-v1, pH 6.5, 37° C.",14.5 µg/mL
same,solubility at 24 h,"[4]; FaSSIF-v1, pH 6.5, 37° C.",17.7 µg/mL
same,solubility at 2 h,"[4]; FeSSIF-v1, pH 5.0, 37° C.",142 µg/mL
same,solubility at 24 h,"[4]; FeSSIF-v1, pH 5.0, 37° C.",168 µg/mL
same,solubility at 2 h,"[4]; Water, 37° C.",5.6 µg/mL
same,solubility at 24 h,"[4]; Water, 37° C.",4.6 µg/mL
